Holding throughout (format): cell-based
Test [1] deals with A431. Description: CCK-8 tumor cell proliferation, A431. The settings on record: 72 hours. As for the experimental part:
(§1) Tumor cells (see Table 2 to Table 5) were inoculated in 96-well plates in complete culture medium (2000-3000 cells/well). After overnight incubation, the compounds with different concentrations (0.000508 μM-10 μM) were used to treat the cells separately for 72 hours. CCK-8 (Cell Counting Kit 8, Dojindo Laboratories, Kumamoto, Japan) experiment was used to evaluate cell proliferation. GraphPad Prism 5.0 software (La Jolla, CA) was used to calculate the half-maximal inhibitory concentration (IC50) values by fitting the concentration response curve. Each IC50 value was represented as an average value±SD.

Test [2] addresses AKT3 (Homo sapiens, UniProt Q9Y243). Kind of test: Western Blot, degradation of AKT3 protein in H1975-OR cells. Also on record: endogenous in cells; host or cells: H1975-OR (osimertinib-resistant H1975). The settings on record: 24 hours, maximum degradation rate; for Dmax at 1 µM: 1000 nM. The method in brief: (§2)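 H1975-OR cells are Osimertinib-resistant H1975, adapted stepwise from 50 nM to 3 μM Osimertinib. Cells were treated with compound for 24 h, lysed, and immunoblotted with ECL detection. Band grayscale density was quantified.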
A general note: In western blotting, separated proteins are transferred to a membrane and probed.

The test system of test [3] is H1975. Kind of test: CCK-8 tumor cell proliferation, H1975. The settings on record: 72 hours. The method in brief: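 Cells seeded at 2000-3000 cells/well in complete medium and incubated overnight, then treated with compounds (0.000508 μM-10 μM) for 72 hours. Proliferation was measured by CCK-8, and IC50 values were obtained by fitting concentration-response curves, reported as mean±SD.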

Test [4] addresses T1, AKT2 (Homo sapiens, UniProt P31751).
T1 construct: AKT1, AKT2, and AKT3 proteins in H1975-OR cells; endogenous in cells; host or cells: H1975-OR (osimertinib-resistant H1975)
Description: Western Blot, degradation of AKT2 protein in H1975-OR cells. The following applies: 24 hours, maximum degradation rate; for Dmax at 1 µM: 1000 nM. The procedure, abridged: as §2

Test [5] deals with H1975OR. Kind of test: CCK-8 tumor cell proliferation, H1975OR. The settings on record: H1975OR cells (Osimertinib resistant), 72 hours. The procedure, abridged: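 Osimertinib-resistant H1975 cells, selected by raising Osimertinib stepwise from 50 nM to 3 μM, were treated for 72 h with compound at 0.000508–10 μM. Proliferation was read by CCK-8, and IC50 came from fitting the concentration–response curve, given as mean ± SD.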

The subject of test [6] is HCC827. Description: CCK-8 tumor cell proliferation, HCC827. The settings on record: HCC827 cells, 72 hours. As for the experimental part:
as §1

The test system of test [7] is H1299. Description: CCK-8 tumor cell proliferation, H1299. The settings on record: 72 hours. The procedure: as §1
For test [8], the system named is PC-9. Kind of test: CCK-8 tumor cell proliferation, PC-9. The following applies: PC-9 cells, 72 hours. The procedure: as §1
Test [9] deals with T2, AKT1 (Homo sapiens, UniProt P31749).
T2 construct: AKT1, AKT2, and AKT3 proteins in H1975-OR cells; endogenous in cells; host or cells: H1975-OR (osimertinib-resistant H1975)
T2 sequence (P31749 whole entry): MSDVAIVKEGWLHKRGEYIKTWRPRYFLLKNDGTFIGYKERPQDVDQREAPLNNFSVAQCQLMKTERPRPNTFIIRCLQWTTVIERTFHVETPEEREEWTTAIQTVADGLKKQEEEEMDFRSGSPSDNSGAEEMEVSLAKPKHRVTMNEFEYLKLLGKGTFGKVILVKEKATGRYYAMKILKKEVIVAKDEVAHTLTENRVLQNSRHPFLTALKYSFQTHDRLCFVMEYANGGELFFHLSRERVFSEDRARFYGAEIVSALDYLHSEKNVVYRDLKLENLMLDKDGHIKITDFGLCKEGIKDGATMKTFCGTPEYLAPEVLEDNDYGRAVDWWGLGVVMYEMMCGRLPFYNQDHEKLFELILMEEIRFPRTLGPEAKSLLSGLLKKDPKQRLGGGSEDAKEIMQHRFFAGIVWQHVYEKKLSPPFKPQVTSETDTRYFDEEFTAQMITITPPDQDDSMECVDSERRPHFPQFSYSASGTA
Kind of test: Western Blot, degradation of AKT1 protein in H1975-OR cells. The following applies: 24 hours, maximum degradation rate; for Dmax at 1 µM: 1000 nM. The procedure, abridged:
as §2

The subject of test [10] is Huh7. Kind of test: CCK-8 tumor cell proliferation, Huh7. The settings on record: Homo sapiens, Huh-7, Huh7 cells, 72 hours. As for the experimental part: as §1
In test [11] the test system is BT-549. Kind of test: CCK-8 tumor cell proliferation, BT-549. The settings on record: Homo sapiens, BT-549 cells, 72 hours. The procedure:
as §1

The mark [12] stands for this setting: Homo sapiens, A-431, A431 cells.
Where [13] appears, read: Homo sapiens, NCI-H1975, H1975 cells.
The mark [14] stands for this setting: Homo sapiens, NCI-H1299, H1299 cells.

The structures appear in SMILES notation. Bounds are passed on as bounds.

T1 sequence (P31751 whole entry): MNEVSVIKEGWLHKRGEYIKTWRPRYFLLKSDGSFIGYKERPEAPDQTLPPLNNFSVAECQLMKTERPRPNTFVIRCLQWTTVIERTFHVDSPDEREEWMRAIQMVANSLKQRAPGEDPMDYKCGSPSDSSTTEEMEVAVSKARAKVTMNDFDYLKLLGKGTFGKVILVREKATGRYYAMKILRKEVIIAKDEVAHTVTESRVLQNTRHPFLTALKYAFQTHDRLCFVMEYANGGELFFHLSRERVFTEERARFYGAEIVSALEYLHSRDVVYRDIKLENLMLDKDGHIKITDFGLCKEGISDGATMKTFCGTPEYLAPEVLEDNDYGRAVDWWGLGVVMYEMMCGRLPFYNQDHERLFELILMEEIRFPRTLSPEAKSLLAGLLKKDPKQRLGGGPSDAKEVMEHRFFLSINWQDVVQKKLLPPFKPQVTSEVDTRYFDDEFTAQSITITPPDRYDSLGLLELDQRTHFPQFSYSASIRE
Sequence of AKT3 (Q9Y243 whole entry): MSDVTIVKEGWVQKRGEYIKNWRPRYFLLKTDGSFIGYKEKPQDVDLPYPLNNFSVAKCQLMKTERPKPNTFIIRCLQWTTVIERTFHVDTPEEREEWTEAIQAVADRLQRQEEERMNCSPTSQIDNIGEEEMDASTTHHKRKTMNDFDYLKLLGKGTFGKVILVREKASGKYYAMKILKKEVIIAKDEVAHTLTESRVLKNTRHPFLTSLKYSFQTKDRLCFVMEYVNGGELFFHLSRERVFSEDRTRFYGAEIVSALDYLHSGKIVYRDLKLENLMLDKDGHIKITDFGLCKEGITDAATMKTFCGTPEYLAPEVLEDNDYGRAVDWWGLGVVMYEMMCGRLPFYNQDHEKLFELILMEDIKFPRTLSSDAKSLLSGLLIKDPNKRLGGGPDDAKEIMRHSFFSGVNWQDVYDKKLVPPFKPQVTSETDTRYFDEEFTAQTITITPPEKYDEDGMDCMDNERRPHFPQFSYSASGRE

For the compound `C=CC(=O)Nc1cccc(-n2c(=O)cc(C)c3cnc(Nc4ccc(N5CCN(CCCCCCCCCCCCCCNC(=O)CC67CC8CC(CC(C8)C6)C7)CC5)cc4OC)nc32)c1` [ZX-HYT-06, N-(3-(2-((4-(4-(14-(2-((3R, 5R, 7R)-adamantan-1-yl)acetylamino)tetradecyl)piperazin-1-yl)-2-methoxyphenyl)amino)-5-methyl-7-oxypyridino [2,3-d]pyrimidin-8 (7H)-yl)phenyl) acrylamide], the IC50 in test [1] (setting [12]) was found to be 0.26 ± 0.047 µM; in test [3] (setting [13]), 0.837 ± 0.11 µM; in [5], 0.125 ± 0.012 µM; in test [6] (Homo sapiens) it was 0.163 ± 0.0134 µM; in test [7] (setting [14]) it was 0.163 ± 0.0134 µM; in [8] (Homo sapiens) it was 0.0732 ± 0.00431 µM. The Dmax at 1 µM is 62.9% in [2], 47% in test [4] and 0% in test [9].
Turning to `C=CC(=O)Nc1cccc(-n2c(=O)cc(C)c3cnc(Nc4ccc(N5CCN(C(=O)CCCCCCCCCCCNC(=O)CC67CC8CC(CC(C8)C6)C7)CC5)cc4OC)nc32)c1` [ZX-HYT-07, N-(3-(2-((4-(4-(12-(2-((3R, 5R, 7R)-adamantan-1-yl)acetylamino)dodecanoyl)piperazin-1-yl)-2-methoxyphenyl)amino)-5-methyl-7-oxypyridino [2,3-d]pyrimidin-8 (7H)-yl)phenyl) acrylamide], the IC50 in [1] (A431 cells) amounted to 0.0839 ± 0.0133 µM; in [3] (H1975 cells), 5.07 ± 0.836 µM; in test [5], 0.417 ± 0.08 µM; in [6] it was 0.882 ± 0.0945 µM; in [7] (H1299 cells), 1.46 ± 0.428 µM; in test [8], 6.79 ± 3.6 µM. For the same compound, the “Dmax (%) at 1000 nM AKT3” value in test [2] came to 69.2%. Besides, in test [4], the “Dmax (%) at 1000 nM AKT2” value is given as 0%. Further, the “Dmax (%) at 1000 nM AKT1” value in [9] is given as 0%.
`CCC(=O)Nc1cccc(-n2c(=O)cc(C)c3cnc(Nc4ccc(N5CCN(CCCCCCCCCCCCNC(=O)CC67CC8CC(CC(C8)C6)C7)CC5)cc4OC)nc32)c1` [ZX-HYT-08, N-(3-(2-((4-(4-(12-(2-((3R, 5R, 7R)-adamantan-1-yl)acetylamino)dodecyl)piperazin-1-yl)-2-methoxyphenyl)amino)-5-methyl-7-oxypyridino [2,3-d]pyrimidin-8 (7H)-yl)phenyl) propionamide]: the concentration for half-maximal inhibition (IC50) in test [1] (setting [12]) is 0.00986 ± 0.0022 µM; in test [3] (setting [13]), 8.47 µM; in test [5], 0.0107 ± 0.003 µM; in test [6] (Homo sapiens), 0.157 ± 0.0679 µM; in test [7] (setting [14]), 0.212 ± 0.0153 µM; in [8] (Homo sapiens), 0.109 ± 0.019 µM. Besides, the Dmax at 1 µM in [2] amounted to 66.8%; in test [4] it was 0%; in [9], 0%.
Consider `COc1cc(N2CCN(CCCCCCCCCCCCNC(=O)CC34CC5CC(CC(C5)C3)C4)CC2)ccc1Nc1ncc2c(C)cc(=O)n(-c3cccc(NC(C)=O)c3)c2n1` [ZX-HYT-09, N-(12-(4-(4-((8-(3-acetylaminophenyl)-5-methyl-7-oxy-7,8-dihydropyridino [2,3-d]pyrimidin-2-yl]amino)-3-methoxyphenyl)piperazin-1-yl)dodecyl)-2-((3R, 5R, 7R)-adamantan-1-yl) acetamide], for which the IC50 came to 0.0106 ± 0.002 µM in test [1] (setting [12]); 0.119 ± 0.0112 µM in test [3] (setting [13]); 0.0236 ± 0.00351 µM in test [5]; 0.134 ± 0.064 µM in test [6] (Homo sapiens); 0.624 ± 0.0448 µM in test [7] (setting [14]); 0.215 ± 0.0636 µM in test [8] (Homo sapiens). Also, the Dmax at 1 µM in [2] turned out to be 75.7%; in test [4], 0%; in test [9] it was 0%.
For `COc1cc(N2CCN(CCCCCCCCCCCCNC(=O)CC34CC5CC(CC(C5)C3)C4)CC2)ccc1Nc1ncc2c(C)cc(=O)n(-c3cccc(NC(=O)C(C)C)c3)c2n1` [ZX-HYT-10, N-(3-(2-((4-(4-(12-(2-(((3R, 5R, 7R)-adamantan-1-yl)acetylamino)dodecyl)piperazin-1-yl)-2-methoxyphenyl)amino)-5-methyl-7-oxypyridino [2,3-d]pyrimidin-8 (7H)-yl)phenyl)isobutylamide], the IC50 was 0.0517 µM in [1] (setting [12]); 0.142 ± 0.0494 µM in test [3] (setting [13]); 0.0196 ± 0.00141 µM in test [5]; 0.309 ± 0.139 µM in [6] (Homo sapiens); 1.81 ± 0.395 µM in test [7] (setting [14]); 0.126 ± 0.0177 µM in [8] (Homo sapiens). The results for the Dmax at 1 µM in test [2], in test [4] and in test [9] were 57.1%, 25.3% and 0%, respectively.
In the case of `COc1cc(N2CCN(CCCCCCCCCCCCNC(=O)CC34CC5CC(CC(C5)C3)C4)CC2)ccc1Nc1ncc2c(C)cc(=O)n(-c3cccc(NC(=O)C(C)(C)C)c3)c2n1` [ZX-HYT-12], the IC50 came to 0.155 ± 0.0075 µM in test [1] (setting [12]); 0.554 ± 0.213 µM in [3] (setting [13]); 0.136 ± 0.0165 µM in [5]; 0.549 ± 0.247 µM in test [6] (Homo sapiens); 2.17 ± 0.419 µM in [7] (setting [14]); 0.466 ± 0.0241 µM in [8] (Homo sapiens). In addition, the Dmax at 1 µM was 75.4% in test [2], 0% in test [4] and 56% in [9].
Regarding `COc1cc(N2CCN(CCCCCCCCCCCCNC(=O)CC34CC5CC(CC(C5)C3)C4)CC2)ccc1Nc1ncc2c(C)cc(=O)n(-c3cccc(N)c3)c2n1` [ZX-HYT-17, 2-((3R, 5R, 7R)-adamantan-1-yl)-N-(12-(4-(4-(8-(3-aminophenyl)-5-methyl-7-oxy-7,8-dihydropyridino [2,3-d]pyrimidin-2-yl)amino)-3-methoxyphenyl)piperazin-1-yl) dodecyl) acetamide], the IC50 in test [1] (setting [12]) was found to be 0.0225 ± 0.0035 µM; in test [3] (setting [13]) it was 0.214 ± 0.013 µM; in test [5], 0.023 ± 0.007 µM; in test [6] (Homo sapiens), 0.186 ± 0.122 µM; in test [7] (setting [14]), 2.1 ± 0.049 µM; in test [8] (Homo sapiens), 0.0234 ± 0.00578 µM. The Dmax at 1 µM in test [2] was determined as 76.4%; in test [4], 45.9%; in test [9], 46.4%.
Take `COc1nc(N2CCN(C(=O)CC34CC5CC(CC(C5)C3)C4)CC2)ccc1Nc1ncc2c(C)cc(=O)n(-c3cccc(NC(=O)C4CC4)c3)c2n1` [ZX-HYT-67, N-(3-(2-(6-(4-(2-((3R, 5R, 7R)-adamantan-1-yl)acetyl)piperazin-1-yl)-2-methoxypyridin-3-yl))amino)-5-methyl-7-oxypyridino [2,3-d] pyrimidin-8 (7H)-yl) phenyl) cyclopropane formamide]: the IC50 in [10] is more than 10 µM; in [11], 0.376 µM.
For the compound `COc1nc(N2CCN(C(=O)NC34CC5CC(CC(C5)C3)C4)CC2)ccc1Nc1ncc2c(C)cc(=O)n(-c3cccc(NC(=O)C4CC4)c3)c2n1` [ZX-HYT-68, N-((3S, 5S, 7S)-adamantan-1-yl)-4-(5-((8-(3-(cyclopropaneformamido)phenyl)-5-methyl-7-oxy-7,8-dihydropyridino [2,3-d]pyrimidin-2-yl)amino)-6-methoxypyridin-2-yl) piperazin-1-formamide], the values for the IC50 in [10] and in test [11] were more than 10 µM and 0.0386 µM, respectively.
The like results for `COc1nc(N2CCN(C(=O)C34CC5CC(CC(C5)C3)C4)CC2)ccc1Nc1ncc2c(C)cc(=O)n(-c3cccc(NC(=O)C4CC4)c3)c2n1` [ZX-HYT-69, N-(3-(2-((6-(4-((3R, 5R, 7R)-adamantan-1-carbonyl)piperazin-1-yl)-2-methoxypyridin-3-yl)amino)-5-methyl-7-oxypyridino [2,3-d]pyrimidin-8 (7H)-yl)phenyl) cyclopropane formamide] were, in that order, more than 10 µM and 3 µM.
`COc1cc(N2CCN(C(=O)CC34CC5CC(CC(C5)C3)C4)CC2)ncc1Nc1ncc2c(C)cc(=O)n(-c3cccc(NC(=O)C4CC4)c3)c2n1` [ZX-HYT-70, N-(3-(2-((6-(4-(2-((3R, 5R, 7R)-adamantan-1-yl)acetyl)piperazin-1-yl)-4-methoxypyridin-3-yl))amino)-5-methyl-7-oxypyridino [2,3-d]pyrimidin-8 (7H)-yl) phenyl) cyclopropane formamide]: the results for the IC50 in test [10] and in [11] were more than 10 µM and 1.02 µM, respectively.
With `COc1cc(N2CCN(C(=O)NC34CC5CC(CC(C5)C3)C4)CC2)ncc1Nc1ncc2c(C)cc(=O)n(-c3cccc(NC(=O)C4CC4)c3)c2n1` [ZX-HYT-71, N-((3S, 5S, 7S)-adamantan-1-yl)-4-(5-((8-(3-(cyclopropaneformamido)phenyl)-5-methyl-7-oxy-7,8-dihydropyridino [2,3-d]pyrimidin-2-yl)amino)-4-methoxypyridin-2-yl) piperazin-1-formamide], the IC50 in test [10] is more than 10 µM; in test [11] it was 1.25 µM.

Broadly, the IC50 is the concentration that inhibits the measured activity by half. Low readings indicate greater potency in that assay, high ones weaker potency in that assay. A word on the Dmax: it is the greatest extent of degradation seen. Read a high Dmax as deep degradation.

These data come from US20240132492A1, “PYRIDOPYRIMIDINE-BASED COMPOUND AND APPLICATION THEREOF” (JINAN UNIVERSITY, priority 2021, published 2024).
